Where two headings read alike, the source gives them in different places.
What was measured:
[1] = In vitro metabolic stability in hepatic microsomes; type: in vitro ADME, rat; details: for % Remaining after 10 min incubation with liver microsomes: NADPH, compound 5 μM; for metabolic stability (in words): hepatic microsomes
Description: Compounds, each at 5 μM, were incubated for specified times at 37° C. with rat liver microsomes (1 mg protein/ml; Sigma-Aldrich, St. Louis, Mo.) in potassium phosphate buffer (100 mM) containing 1 mM NADPH. The mixture was then chilled on ice, and 0.5 ml of ice-cold ethyl acetate was added.

UT-B = biological target: T1, UT-B (Mus musculus, UniProt Q8VHL0); assay: Erythrocyte lysis assay of UT-B inhibition; type: cell-based; set-up: Screening was performed using mouse erythrocytes, which strongly express UT-B; endogenous in cells; host or cells: erythrocytes in whole blood of wild-type CD1 mice; details: erythrocyte lysis assay, read-out: IC50
T1 sequence (Q8VHL0 1-384): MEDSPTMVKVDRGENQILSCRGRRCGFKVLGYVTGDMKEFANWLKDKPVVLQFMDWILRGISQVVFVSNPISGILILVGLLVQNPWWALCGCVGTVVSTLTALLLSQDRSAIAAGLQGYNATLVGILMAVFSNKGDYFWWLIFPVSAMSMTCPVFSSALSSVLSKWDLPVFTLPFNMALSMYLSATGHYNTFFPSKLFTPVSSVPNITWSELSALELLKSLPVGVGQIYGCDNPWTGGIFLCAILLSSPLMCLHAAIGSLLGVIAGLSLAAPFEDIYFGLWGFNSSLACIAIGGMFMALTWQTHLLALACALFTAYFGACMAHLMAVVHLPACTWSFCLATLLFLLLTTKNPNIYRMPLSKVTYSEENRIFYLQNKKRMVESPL
Description: Screening was performed using mouse erythrocytes, which strongly express UT-B and are highly water permeable because the cells also express aquaporin-1 (AQP1) water channels. The screening method involved assay of erythrocyte lysis in response to a large, outwardly directed gradient of acetamide, a urea analog that is transported efficiently by UT-B. A large, outwardly directed gradient of acetamide causes transient cell swelling, but little cell lysis, because UT-B-facilitated acetamide efflux limits water influx (see FIG. 1A). UT-B inhibition prevents acetamide efflux, allowing unopposed cell swelling and consequent cell lysis, which was recorded by reduced near-infrared light absorption at 710 nm.
Primary screening was done using a collection of 100,000 diverse, drug-like compounds from commercial sources (ChemDiv, San Diego, Calif.; Asinex, Winston-Salem, N.C.). […] Vigorous mixing was achieved by repeated pipetting. Erythrocyte lysis was quantified by absorbance at 710 nm wavelength, made within 5 min after hypo-osmolar shock. […] For analysis of structure-activity relationships >900 commercially available analogs (ChemDiv and Asinex) were tested.

[2] = Table 1, commercially available analogues

Structure (SMILES): COc1ccc(CNc2nc3c(S(=O)(=O)c4ccc(C)cc4)nnn3c3ccsc23)cc1 [Compound 2ad, [3-(4-methyl-benzenesulfonyl)-thieno[2,3-e][1,2,3]triazolo[1,5-a]pyrimidin-5-yl]-(4-methoxy-benzyl)-amine]
- % Remaining after 10 min incubation with liver microsomes [1]: 80%
- metabolic stability (in words) [1]: improved metabolic stability
- IC50 (UT-B; [2]): 1660 nM

Structure (SMILES): Cc1ccc(S(=O)(=O)c2nnn3c2nc(NCc2ccc(F)cc2)c2sccc23)cc1 [Compound 2aj, [3-(4-methyl-benzenesulfonyl)-thieno[2,3-e][1,2,3]triazolo[1,5-a]pyrimidin-5-yl]-(4-fluoro-benzyl)-amine]
- % Remaining after 10 min incubation with liver microsomes [1]: 86%
- metabolic stability (in words) [1]: improved metabolic stability
- IC50 (UT-B; [2]): 733 nM

Structure (SMILES): Cc1ccc(S(=O)(=O)c2nnn3c2nc(NCc2ccco2)c2sccc23)cc1C [Compound 2am, furan-2-ylmethyl-[3-(3,4-dimethyl-benzenesulfonyl)-thieno[2,3-e][1,2,3]triazolo[1,5-a]pyrimidin-5-yl]-amine]
- % Remaining after 10 min incubation with liver microsomes [1]: <2%
- IC50 (UT-B; [2]): 156 nM

Structure (SMILES): Cc1ccc(S(=O)(=O)c2nnn3c2nc(N2CCOCC2)c2sccc23)cc1C [Compound 2an]
- % Remaining after 10 min incubation with liver microsomes [1]: 6%
- IC50 (UT-B; [2]): 1710 nM

Structure (SMILES): Cc1ccc(S(=O)(=O)c2nnn3c2nc(NCc2ccccc2)c2sccc23)cc1C [Compound 2ao, [3-(3,4-dimethyl-benzenesulfonyl)-thieno[2,3-e][1,2,3]triazolo[1,5-a]pyrimidin-5-yl]-benzyl-amine]
- % Remaining after 10 min incubation with liver microsomes [1]: 3%
- IC50 (UT-B; [2]): 1000 nM

Structure (SMILES): COc1ccccc1CNc1nc2c(S(=O)(=O)c3ccc(C)c(C)c3)nnn2c2ccsc12 [Compound 2as, [3-(3,4-dimethyl-benzenesulfonyl)-thieno[2,3-e][1,2,3]triazolo[1,5-a]pyrimidin-5-yl]-(2-methoxy-benzyl)-amine]
- % Remaining after 10 min incubation with liver microsomes [1]: 15%
- IC50 (UT-B; [2]): 1040 nM

Structure (SMILES): COc1ccc(CNc2nc3c(S(=O)(=O)c4ccc(C)c(C)c4)nnn3c3ccsc23)cc1 [Compound 2at, [3-(3,4-dimethyl-benzenesulfonyl)-thieno[2,3-e][1,2,3]triazolo[1,5-a]pyrimidin-5-yl]-(4-methoxy-benzyl)-amine]
- % Remaining after 10 min incubation with liver microsomes [1]: 12%
- IC50 (UT-B; [2]): 1540 nM

Structure (SMILES): Cc1ccc(S(=O)(=O)c2nnn3c2nc(NCCC(C)C)c2sccc23)cc1C [Compound 2au]
- % Remaining after 10 min incubation with liver microsomes [1]: 35%
- IC50 (UT-B; [2]): 854 nM

Structure (SMILES): CCOCCCNc1nc2c(S(=O)(=O)c3ccc(C)c(C)c3)nnn2c2ccsc12 [Compound 2aw, {3-[3,4-dimethyl-benzenesulfonyl]-thieno[2,3-e][1,2,3]triazolo[1,5-a]pyrimidin-5-yl}-3-ethoxylpropyl-amine]
- % Remaining after 10 min incubation with liver microsomes [1]: 2%
- IC50 (UT-B; [2]): 520 nM

Structure (SMILES): Cc1ccc(S(=O)(=O)c2nnn3c2nc(N2CCCCC2)c2sccc23)cc1C [Compound 2az]
- % Remaining after 10 min incubation with liver microsomes [1]: <2%
- IC50 (UT-B; [2]): 1760 nM

Structure (SMILES): Cc1ccc(S(=O)(=O)c2nnn3c2nc(NCc2ccc(Cl)cc2)c2sccc23)cc1C [Compound 2bc, [3-(3,4-dimethyl-benzenesulfonyl)-thieno[2,3-e][1,2,3]triazolo[1,5-a]pyrimidin-5-yl]-(4-chloro-benzyl)-amine]
- % Remaining after 10 min incubation with liver microsomes [1]: 83%
- metabolic stability (in words) [1]: improved metabolic stability
- IC50 (UT-B; [2]): 582 nM

Structure (SMILES): Cc1ccc(S(=O)(=O)c2nnn3c2nc(NCc2cccs2)c2sccc23)cc1C [Compound 2bd, {3-[3,4-dimethyl-benzenesulfonyl]-thieno[2,3-e][1,2,3]triazolo[1,5-a]pyrimidin-5-yl}-thiophen-2-ylmethyl-amine]
- % Remaining after 10 min incubation with liver microsomes [1]: <2%
- IC50 (UT-B; [2]): 37 nM

Structure (SMILES): O=S(=O)(c1ccc(Cl)cc1)c1nnn2c1nc(NCc1ccco1)c1sccc12 [Compound 2bf, furan-2-ylmethyl-[3-(4-chloro-benzenesulfonyl)-thieno[2,3-e][1,2,3]triazolo[1,5-a]pyrimidin-5-yl]-amine]
- % Remaining after 10 min incubation with liver microsomes [1]: 21%
- IC50 (UT-B; [2]): 1870 nM

Structure (SMILES): CCCCNc1nc2c(S(=O)(=O)c3ccc(Cl)cc3)nnn2c2ccsc12 [Compound 2bg]
- % Remaining after 10 min incubation with liver microsomes [1]: 74%
- IC50 (UT-B; [2]): 1260 nM

Structure (SMILES): COCCNc1nc2c(S(=O)(=O)c3ccc(Cl)cc3)nnn2c2ccsc12 [Compound 2bh, {3-[4-chloro-benzenesulfonyl]-thieno[2,3-e][1,2,3]triazolo[1,5-a]pyrimidin-5-yl}-2-methoxyethyl-amine]
- % Remaining after 10 min incubation with liver microsomes [1]: 63%
- IC50 (UT-B; [2]): 1910 nM

Structure (SMILES): O=S(=O)(c1ccc(Cl)cc1)c1nnn2c1nc(NCc1cccs1)c1sccc12 [Compound 2bi, {3-[4-chloro-benzenesulfonyl]-thieno[2,3-e][1,2,3]triazolo[1,5-a]pyrimidin-5-yl}-thiophen-2-ylmethyl-amine]
- % Remaining after 10 min incubation with liver microsomes [1]: 52%
- IC50 (UT-B; [2]): 214 nM

Structure (SMILES): CCCCNc1nc2c(S(=O)(=O)c3ccc(C(C)C)cc3)nnn2c2ccsc12 [Compound 2bm]
- % Remaining after 10 min incubation with liver microsomes [1]: <2%
- IC50 (UT-B; [2]): 191 nM

Structure (SMILES): COCCNc1nc2c(S(=O)(=O)c3ccc(C(C)C)cc3)nnn2c2ccsc12 [Compound 2bo, {3-[4-isopropyl-benzenesulfonyl]-thieno[2,3-e][1,2,3]triazolo[1,5-a]pyrimidin-5-yl}-2-methoxyethyl-amine]
- % Remaining after 10 min incubation with liver microsomes [1]: 14%
- IC50 (UT-B; [2]): 711 nM

Structure (SMILES): CCc1ccc(S(=O)(=O)c2nnn3c2nc(NCc2ccco2)c2sccc23)cc1 [Compound 2bp, furan-2-ylmethyl-[3-(4-ethyl-benzenesulfonyl)-thieno[2,3-e][1,2,3]triazolo[1,5-a]pyrimidin-5-yl]-amine]
- % Remaining after 10 min incubation with liver microsomes [1]: 12%
- IC50 (UT-B): 239 nM

Structure (SMILES): CCc1ccc(S(=O)(=O)c2nnn3c2nc(NCc2ccccc2)c2sccc23)cc1 [Compound 2br, [3-(4-ethyl-benzenesulfonyl)-thieno[2,3-e][1,2,3]triazolo[1,5-a]pyrimidin-5-yl]-benzyl-amine]
- % Remaining after 10 min incubation with liver microsomes [1]: 44%
- IC50 (UT-B; [2]): 664 nM

Structure (SMILES): CCc1ccc(S(=O)(=O)c2nnn3c2nc(N(CC)CC)c2sccc23)cc1 [Compound 2bs]
- % Remaining after 10 min incubation with liver microsomes [1]: 6%
- IC50 (UT-B; [2]): 1770 nM

Structure (SMILES): CCc1ccc(S(=O)(=O)c2nnn3c2nc(NCc2ccc(Cl)cc2)c2sccc23)cc1 [Compound 2bt, [3-(4-ethyl-benzenesulfonyl)-thieno[2,3-e][1,2,3]triazolo[1,5-a]pyrimidin-5-yl]-(4-chloro-benzyl)-amine]
- % Remaining after 10 min incubation with liver microsomes [1]: 81%
- metabolic stability (in words) [1]: improved metabolic stability
- IC50 (UT-B; [2]): 374 nM

Reference: patent publication US9303042B2, “Triazolothienopyrimidine compound inhibitors of urea transporters and methods of using inhibitors” (The Regents of the University of California, priority 2012, dated 2016)
